Where two headings read alike, the source gives them in different places.
Assays:
[1] = biological target: T1, Drosophila OR47a (Drosophila melanogaster, UniProt P81921); assay: Calcium ion fluorescence (GCaMP6) assay, OR47a stable HEK293 cell line; format: cell-based; conditions: for Average response: OR47a cell line, mean of biological replicates; for DF norm AVERAGE OR47a: normalized fluorescence change, values below 0.05 threshold given as 0
T1 construct: expressed in transfected cells
T1 sequence (P81921 1-385): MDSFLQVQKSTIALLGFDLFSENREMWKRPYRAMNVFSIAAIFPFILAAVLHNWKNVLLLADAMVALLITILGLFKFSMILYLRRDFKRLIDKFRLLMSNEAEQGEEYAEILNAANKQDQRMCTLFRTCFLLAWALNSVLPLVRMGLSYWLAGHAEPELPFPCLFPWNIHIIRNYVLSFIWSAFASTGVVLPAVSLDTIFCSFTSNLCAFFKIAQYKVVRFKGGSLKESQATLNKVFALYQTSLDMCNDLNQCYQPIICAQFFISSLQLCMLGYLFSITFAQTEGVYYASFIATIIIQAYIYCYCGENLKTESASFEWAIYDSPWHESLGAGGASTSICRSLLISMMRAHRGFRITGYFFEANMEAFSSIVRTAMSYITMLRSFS
T1 sequence (Q9VNB5 1-486 partner): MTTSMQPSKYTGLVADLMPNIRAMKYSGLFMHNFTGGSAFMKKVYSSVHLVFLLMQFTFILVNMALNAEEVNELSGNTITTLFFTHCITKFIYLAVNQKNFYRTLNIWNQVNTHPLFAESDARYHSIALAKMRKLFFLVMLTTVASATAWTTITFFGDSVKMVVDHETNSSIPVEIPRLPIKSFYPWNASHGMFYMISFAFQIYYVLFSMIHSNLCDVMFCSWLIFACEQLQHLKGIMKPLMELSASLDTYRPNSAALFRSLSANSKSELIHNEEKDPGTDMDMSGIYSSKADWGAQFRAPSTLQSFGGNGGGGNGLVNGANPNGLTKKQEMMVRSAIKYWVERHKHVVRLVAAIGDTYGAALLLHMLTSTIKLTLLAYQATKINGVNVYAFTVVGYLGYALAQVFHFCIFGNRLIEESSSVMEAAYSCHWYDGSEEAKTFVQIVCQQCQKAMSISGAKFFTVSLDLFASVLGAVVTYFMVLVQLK
Protocol: (§1) These VUAA1 normalized ∆F values were used to compare the different receptors and ligands.
(§2) The concentration-dependent effect of the reference ligands on their cognate cell lines was examined in more detail. Twelve different ligand concentrations were measured on each cell line in an overall 0.01 μM to 100 μM concentration range with 5 repetitions with three technical replicates each time.
(§3) Twelve thousand to 18,000 cells were plated into each well of a black wall, transparent bottom 384-well microplate (Greiner) 48 h or 72 h before the measurements and were simultaneously treated with 1 μg/mL doxycycline. […] The plate has 24 columns, thus we could record responses in up to eight different cell lines in each plate. On the day of the experiment, the growth medium was replaced with 20 µL assay buffer/well (140 mM NaCl, 5 mM KCl, 2 mM CaCl2, 1 mM MgCl2, 5 mM HEPES-Na, 20 mM glucose, pH 7.3, 340 mOsm). […] Baseline fluorescence (F0) was recorded for 5 s, after which 7 µL VOC buffer (140 mM NaCl, 5 mM KCl, 2 mM CaCl2, 1 mM MgCl2, 5 mM HEPES-Na, 31 mM glucose, 0.1% DMSO, pH 7.3, 340 mOsm) was injected into each well in one row and the fluorescence response was recorded for an additional 30 s, at a rate of one read/sec. VOC solutions (VOC buffer with 4× concentration of the final measured VOC concentration, 9 µL/well was injected) were measured on the same wells in a second round with the same protocol. Each individual concentration of a specific VOC sample was recorded in three wells for the same cell line on the same microplate. The raw data were exported in xls file format, F0 and FMAX values, and the fluorescence intensity changes (∆F) were calculated in Excel (Microsoft) (Supplementary file Data summary.xlsx) using the following equation: ΔF=FMAX-F0/F0 (see also Fig. 1C). On each plate, we recorded the response of each cell line to 50 µM VUAA1. The average of these ∆F values of each cell line were used to calculate the VUAA1-normalized values for the rest of the plate, by dividing VOC response ∆F values by the average VUAA1 response ∆F value of the corresponding OR cell line. Each VOC-OR combination was measured three times as technical replicates. […] The average of these replicates were used as one ∆F and VUAA1-normalized ∆F in the following analysis.
(§4) In the next rows we tested the reference VOCs (or other VOCs known to activate the corresponding cell lines), in order to test if all cell lines are responsive. The remaining rows were used to test VOCs with unknown effect.
(§5) The recorded FMAX, F0, ∆F, VUAA1-normalized ∆F values, as well as the OR name, the name of the tested sample, and the final concentration for each well were copied into supplementary file Data summary.xlsx, that was used to summarize all the plates recorded. Here, the averages of the measurements were calculated for each receptor-VOC-concentration combination.

[2] = biological target: T2, Drosophila OR71a (Drosophila melanogaster, UniProt Q9VUK5); assay: Calcium ion fluorescence (GCaMP6) assay, OR71a stable HEK293 cell line; format: cell-based; conditions: for OR71a Average response (VUAA1-normalized): 50 μM VUAA1 = 1; for activation at 1 µM / activation at 10 µM / activation at 100 µM: HEK293, read-out: OR71a response (VUAA1-normalized response); for Average response: OR71a cell line, VUAA1-normalized response, mean of biological replicates; for DF norm AVERAGE OR71a: normalized fluorescence change, values below 0.05 threshold given as 0
T2 construct: expressed in transfected cells
T2 sequence (Q9VUK5 1-378): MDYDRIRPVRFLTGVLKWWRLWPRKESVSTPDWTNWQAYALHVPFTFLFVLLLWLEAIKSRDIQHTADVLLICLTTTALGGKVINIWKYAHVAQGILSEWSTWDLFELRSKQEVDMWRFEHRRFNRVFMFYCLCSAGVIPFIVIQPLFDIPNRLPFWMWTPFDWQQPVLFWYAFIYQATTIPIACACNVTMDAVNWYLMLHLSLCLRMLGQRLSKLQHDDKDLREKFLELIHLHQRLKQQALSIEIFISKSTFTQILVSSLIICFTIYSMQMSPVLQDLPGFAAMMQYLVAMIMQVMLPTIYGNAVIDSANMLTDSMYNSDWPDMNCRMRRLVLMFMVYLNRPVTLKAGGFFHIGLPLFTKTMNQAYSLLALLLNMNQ
T2 sequence (Q9VNB5 1-486 partner): T1 sequence (Q9VNB5 1-486 partner)
Protocol: as §1, §2, §3, §4, §5

[3] = HEK293, read-out: OR47a response (VUAA1-normalized response)
[4] = HEK293, read-out: OR47a Average response (VUAA1-normalized)

SMILES | activation at 1 µM [1, 3] | activation at 10 µM [1, 3] | activation at 100 µM [1, 3] | Average response ([1]; odorant cc. 1 µM) | Average response ([1]; odorant cc. 10 µM) | Average response ([1]; odorant cc. 100 µM) | DF norm AVERAGE OR47a ([1]; concentration 1) | DF norm AVERAGE OR47a ([1]; concentration 10) | DF norm AVERAGE OR47a ([1]; concentration 100) | activation at 1 µM [2] | activation at 10 µM [2] | activation at 100 µM [2] | Average response ([2]; cc. 1 µM) | Average response ([2]; cc. 10 µM) | Average response ([2]; cc. 100 µM) | DF norm AVERAGE OR71a ([2]; concentration 1) | DF norm AVERAGE OR71a ([2]; concentration 10) | DF norm AVERAGE OR71a ([2]; concentration 100) | activation at 1 µM [1, 4] | activation at 10 µM [1, 4] | other results
CCCCCC(C)O (stereo not drawn) [2-heptanol] | 0% | 6% | 0% | 0.00 | 0.06 | 0.00 | 0 | 0.05999 | 0 | 0% | 0% | 16% | 0.00 | 0.04 | 0.16 | 0 | 0 | 0.1631 |  |  | OR71a Average response (VUAA1-normalized) ([2]; 1 μM VOC): 0.00; OR71a Average response (VUAA1-normalized) ([2]; 10 μM VOC): 0.04; OR71a Average response (VUAA1-normalized) ([2]; 100 μM VOC): 0.16
CCCCCC(C)=O [2-heptanone] | 0% | 19% | 46% | 0.03 | 0.19 | 0.46 | 0 | 0.1895 | 0.4589 | 8% | 12% | 5% | 0.08 | 0.12 | 0.05 | 0.08012 | 0.1157 | 0.05175 | 3% | 19% | activation at 100 µM [1, 4]: 46%
CCCCC(C)O (stereo not drawn) [2-hexanol] | 0% | 0% | 5% | 0.04 | 0.00 | 0.05 | 0 | 0 | 0.05091 | 0% | 0% | 0% | 0.00 | 0.00 | 0.0351 | 0 | 0 | 0 |  |  | 
CCCCC(C)=O [2-hexanone] | 0% | 0% | 16% | 0.0368 | 0.00 | 0.16 | 0 | 0 | 0.1643 | 8% | 0% | 0% | 0.08 | 0.00 | 0.00 | 0.08158 | 0 | 0 | 4% | 0% | activation at 100 µM [1, 4]: 16%
CCCCCCCCC(CO)CCCCCC (stereo not drawn) [2-hexyl-1-decanol] | 0% | 0% | 0% | 0.00 | 0.05 | 0.00 | 0 | 0 | 0 | 0% | 0% | 0% | 0.00 | 0.00 | 0.00 | 0 | 0 | 0 |  |  | 
CC1=CCC2C(C1)C2(C)C (stereo not drawn) [3-carene] | 0% | 0% | 0% | 0.00 | 0.00 | 0.03 | 0 | 0 | 0 | 0% | 0% | 0% | 0.00 | 0.00 | 0.00 | 0 | 0 | 0 |  |  | 
CCCC(O)CC (stereo not drawn) [3-hexanol] | 0% | 0% | 11% | 0.00 | 0.00 | 0.11 | 0 | 0 | 0.1087 | 0% | 6% | 0% | 0.00 | 0.06 | 0.0155 | 0 | 0.06016 | 0 | 0% | 0% | activation at 100 µM [1, 4]: 11%
Cc1cccc(O)c1 [3-methylphenol] | 0% | 0% | 0% | 0.00 | 0.00 | 0.00 | 0 | 0 | 0 | 0% | 0% | 0% | 0.03 | 0.0152 | 0.0133 | 0 | 0 | 0 |  |  | 

From paper PMC10709440, “High-throughput ligand profile characterization in novel cell lines expressing seven heterologous insect olfactory receptors for the detection of volatile plant biomarkers” (Scientific Reports, 2023)
